ChEMBL document CHEMBL1154341, “Inhibition of the dimerization and active site of HIV-1 protease by secondary metabolites from the Vietnamese mushroom Ganoderma colossum” (J Nat Prod, 2009)
pIC50, pKi: −log10 of the molar value. Each block holds one compound with its values, some of them ahead of it. Activity calls are given as the source filed them. The calls are words filed in the database; no cut-off is given here.

Columns and labels:
[1] = target: T1, Protease (Human immunodeficiency virus 1, UniProt Q9YQ12); assay: Inhibition of HIV1 protease
[2] = target: T1, Protease; assay: Inhibition of recombinant HIV1 protease after 30 mins by reverse phase HPLC
[3] = target: Protease (Human immunodeficiency virus 1) (UniProt Q9YQ12); assay: (§1) Inhibition of HIV1 protease dimerization by Zhang-Poorman kinetic assay
[4] = target: T1, Protease; assay: Competitive inhibition of HIV1 protease by Lineweaver-Burke plot analysis
[5] = Inhibition of HIV2 protease; design: species or system Human immunodeficiency virus 2
[6] = target: Human immunodeficiency virus type 1 integrase (Human immunodeficiency virus 1, UniProt Q7ZJM1); assay: Inhibition of HIV1 integrase strand transfer activity
[7] = target: T1, Protease; assay: as §1

Compound: CC(C)c1cc2c(c(O)c1O)[C@@]1(C(=O)O)CCCC(C)(C)[C@@H]1CC2 [CARNOSIC ACID]
pIC50 [1]: 6.62

pIC50 [2]: 4.66
Compound: CC(C)=CCC/C(C)=C/CCC1=C[C@@H](c2cc(O)ccc2O)OC1=O [GANOMYCIN I]

inhibition [3]: inactive
pIC50 [2]: 5.54
pKi [4]: 5.40
Compound: CC(C)=CCC/C(C)=C/CC/C(=C/Cc1cc(O)ccc1O)C(=O)O [GANOMYCIN B]

pIC50 [1]: 4.00
pIC50 [5]: 3.60
pIC50 [6]: 4.40
Compound: COc1cc(/C=C/C(=O)CC(=O)/C=C/c2ccc(O)c(OC)c2)ccc1O [CURCUMIN]

pKi [7]: 4.76
Compound: CC1=CC[C@H]([C@@H](C)[C@H]2CC[C@@]3(C)C4=C(C=C5C=CC(=O)OC(C)(C)[C@@H]5CC4)CC[C@]23C)OC1=O [SCHISANLACTONE A]
